In ChEMBL document CHEMBL1153734, “Protoxylocarpins F-H, protolimonoids from seed kernels of Xylocarpus granatum” (J Nat Prod, 2009):
pIC50: −log10 of the molar value. Active and inactive are the calls of the source. The rule behind the calls is not given here.

How the values were obtained:
Assay type in all cases: functional, cell-based
SW-620 = test: Cytotoxicity against human SW620 cells after 3 days by MTT assay
ChaGo = test: (§1) Cytotoxicity against human ChaGo cells after 3 days by MTT assay
BT-474 = test: Cytotoxicity against human BT474 cells after 3 days by MTT assay
HepG2 = test: Cytotoxicity against human HepG2 cells after 3 days by MTT assay; conditions: for pIC50: HepG2, 72 h
KATO III cell = test: Cytotoxicity against human KATO III cells after 3 days by MTT assay
[1] = as §1; conditions: 72 h

| SMILES | Activity (SW-620) | Activity (ChaGo) | Activity (BT-474) | Activity (HepG2) | Activity (KATO III cell) | pIC50 (HepG2) | pIC50 [1] |
| --- | --- | --- | --- | --- | --- | --- | --- |
| COC(=O)C[C@H]1C(C)(C)C(=O)[C@@H]2CC3=C4CC(=O)O[C@@H](c5ccoc5)[C@]4(C)CC[C@@H]3[C@@]1(C)C2=O | inactive | inactive | inactive | inactive | inactive |  |  |
| CC1(C)C(=O)C=C[C@]2(C)[C@H]3CC[C@@]4(C)[C@H](c5ccoc5)OC(=O)[C@H]5O[C@]54[C@]3(C)C(=O)C[C@@H]12 [DEACETOXY-7-OXOGEDUNIN] |  |  |  |  |  | 4.79 |  |
| COC(=O)[C@H](OC(C)=O)[C@H]1[C@]2(C)C[C@]3(O)[C@@](OC(C)=O)([C@H]4O[C@@]5(C)O[C@@]6(CC[C@@]7(C)[C@H](c8ccoc8)OC(=O)C[C@@]7(O)[C@@]46O5)[C@]13C)[C@H]2OC(C)=O | inactive | inactive | inactive | inactive | inactive |  |  |
| CC(=O)OC1OC(C2OC2(C)C)C[C@@H]1[C@H]1CC=C2C3(C)C(O)CC4C(C)(C)C(=O)CC[C@]4(C)[C@H]3CC[C@@]21C (stereo not given in full) | inactive | inactive | inactive | inactive | inactive |  |  |
| CC(=O)O[C@@H]1C[C@H]2C(C)(C)C(=O)C=C[C@]2(C)[C@H]2CC[C@]3(C)C(=CC[C@H]3[C@@H]3COC(=O)C3)[C@@]21C | inactive | inactive | inactive | inactive | inactive |  |  |
| COC(=O)C[C@H]1C(C)(C)[C@@H]2O[C@@]34C[C@@H]2C(=O)[C@]1(C)[C@H]3CC[C@@]1(C)[C@@H](c2ccoc2)OC(=O)C[C@]14O | inactive | inactive | inactive | inactive | inactive |  |  |
| CC(=O)O[C@@H]1C[C@H]2C(C)(C)C(=O)C=C[C@]2(C)[C@H]2CC[C@]3(C)C(=CC[C@H]3[C@H]3CO[C@@H]([C@H](O)C(C)(C)O)C3)[C@@]21C | inactive | inactive | inactive | inactive | inactive |  |  |
| CC1(C)C(=O)C=C[C@]2(C)[C@H]3CC[C@@]4(C)[C@H](c5ccoc5)OC(=O)[C@H]5O[C@]54[C@]3(C)[C@H](O)C[C@@H]12 [DEACETYLGEDUNIN] | inactive |  | inactive |  | inactive | 4.99 | 4.80 |
| COC(=O)C[C@H]1C(C)(C)[C@H](O)[C@@H]2CC3=C4CC(=O)O[C@@H](c5ccoc5)[C@]4(C)CC[C@@H]3[C@@]1(C)C2=O | inactive | inactive | inactive | inactive | inactive |  |  |
| CC(=O)O[C@@H]1C[C@H]2C(C)(C)C(=O)C=C[C@]2(C)[C@H]2CC[C@]3(C)C(=CC[C@H]3[C@H]3CO[C@@H]([C@@H](O)C(C)(C)O)C3)[C@@]21C | inactive | inactive | inactive | inactive | inactive |  |  |
| COC(=O)[C@H](OC(C)=O)[C@H]1[C@]2(C)C[C@]3(O)[C@H]([C@H]2OC(C)=O)[C@H]2O[C@@]4(C)O[C@@]5(CC[C@@]6(C)[C@H](c7ccoc7)OC(=O)C[C@@]6(O)[C@@]25O4)[C@]13C | inactive | inactive | inactive | inactive | inactive |  |  |
| CC(=O)O[C@@H]1C[C@H]2C(C)(C)C(=O)C=C[C@]2(C)[C@H]2CC[C@]3(C)C(=CC[C@H]3[C@H]3CO[C@@H](C4(O)OC4(C)C)C3)[C@@]21C (stereo not given in full) | inactive | inactive | inactive | inactive | inactive |  |  |
| C=C1[C@@H]2CC[C@@]3(C)[C@H](c4ccoc4)OC(=O)C[C@]13O[C@H]1CC(=O)C(C)(C)[C@H](CC(=O)OC)[C@]12C | inactive | inactive | inactive | inactive | inactive |  |  |
| COC(=O)CC[C@@H]1[C@@H](C)C(=O)C([C@@H](OC(C)=O)[C@@]2(O)C(=O)CC[C@]3(C)C2=CC(=O)O[C@H]3c2ccoc2)=CC1(C)C [XYLOGRANATIN C] | inactive |  | inactive |  | inactive |  | 5.04 |
